Measurements taken from article PMC8007111, “Novel Potent Muscarinic Receptor Antagonists: Investigation on the Nature of Lipophilic Substituents in the 5- and/or 6-Positions of the 1,4-Dioxane Nucleus” (Journal of Medicinal Chemistry, 2020).
Like-named read-outs stand apart in the source and are kept apart here.

Assays:
hM1 mAChR [1] = target: T1, hM1 mAChR (Homo sapiens, UniProt P11229); test: [3H]NMS inhibition radioligand binding, hM1 in CHO-K1 cell membranes; details: [3H]NMS, CHO-K1 cell membranes; mean ± S.E.M.
T1 construct: expressed in transfected cells; host or cells: CHO-K1 (membrane preparation)
T1 sequence (P11229 1-460): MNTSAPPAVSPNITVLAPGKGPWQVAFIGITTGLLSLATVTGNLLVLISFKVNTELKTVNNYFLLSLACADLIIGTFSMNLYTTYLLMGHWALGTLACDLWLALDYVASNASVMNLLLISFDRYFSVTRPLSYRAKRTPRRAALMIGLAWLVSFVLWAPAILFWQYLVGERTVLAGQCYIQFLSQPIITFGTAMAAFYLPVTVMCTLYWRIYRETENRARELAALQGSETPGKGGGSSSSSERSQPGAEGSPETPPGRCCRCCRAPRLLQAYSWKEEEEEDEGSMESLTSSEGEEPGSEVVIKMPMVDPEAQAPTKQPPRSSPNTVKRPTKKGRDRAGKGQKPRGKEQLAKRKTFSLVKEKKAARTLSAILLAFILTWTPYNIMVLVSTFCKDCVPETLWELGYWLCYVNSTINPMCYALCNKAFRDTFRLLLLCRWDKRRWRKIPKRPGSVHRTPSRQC

hM2 mAChR [2] = target: T2, hM2 mAChR (Homo sapiens, UniProt P08172); test: [3H]NMS inhibition radioligand binding, hM2 in CHO-K1 cell membranes; details: [3H]NMS, CHO-K1 cell membranes; mean ± S.E.M.
T2 construct: expressed in transfected cells; host or cells: CHO-K1 (membrane preparation)
T2 sequence (P08172 1-466): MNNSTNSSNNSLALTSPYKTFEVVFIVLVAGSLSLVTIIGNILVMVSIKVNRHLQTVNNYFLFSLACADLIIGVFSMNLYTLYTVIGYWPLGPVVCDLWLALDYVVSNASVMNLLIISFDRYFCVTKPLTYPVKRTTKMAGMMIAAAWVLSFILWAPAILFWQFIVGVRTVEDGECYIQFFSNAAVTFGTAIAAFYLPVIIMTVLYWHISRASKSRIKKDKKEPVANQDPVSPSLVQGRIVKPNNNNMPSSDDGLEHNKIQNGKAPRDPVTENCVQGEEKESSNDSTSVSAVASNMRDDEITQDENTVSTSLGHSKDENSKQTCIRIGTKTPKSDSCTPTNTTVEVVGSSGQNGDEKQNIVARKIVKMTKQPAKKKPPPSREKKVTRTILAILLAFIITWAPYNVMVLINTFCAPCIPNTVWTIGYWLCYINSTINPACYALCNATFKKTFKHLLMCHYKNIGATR

hM3 mAChR [3] = target: T3, hM3 mAChR (Homo sapiens, UniProt P20309); test: [3H]NMS inhibition radioligand binding, hM3 in CHO-K1 cell membranes; details: [3H]NMS, CHO-K1 cell membranes; mean ± S.E.M.
T3 construct: expressed in transfected cells; host or cells: CHO-K1 (membrane preparation)
T3 sequence (P20309 whole entry): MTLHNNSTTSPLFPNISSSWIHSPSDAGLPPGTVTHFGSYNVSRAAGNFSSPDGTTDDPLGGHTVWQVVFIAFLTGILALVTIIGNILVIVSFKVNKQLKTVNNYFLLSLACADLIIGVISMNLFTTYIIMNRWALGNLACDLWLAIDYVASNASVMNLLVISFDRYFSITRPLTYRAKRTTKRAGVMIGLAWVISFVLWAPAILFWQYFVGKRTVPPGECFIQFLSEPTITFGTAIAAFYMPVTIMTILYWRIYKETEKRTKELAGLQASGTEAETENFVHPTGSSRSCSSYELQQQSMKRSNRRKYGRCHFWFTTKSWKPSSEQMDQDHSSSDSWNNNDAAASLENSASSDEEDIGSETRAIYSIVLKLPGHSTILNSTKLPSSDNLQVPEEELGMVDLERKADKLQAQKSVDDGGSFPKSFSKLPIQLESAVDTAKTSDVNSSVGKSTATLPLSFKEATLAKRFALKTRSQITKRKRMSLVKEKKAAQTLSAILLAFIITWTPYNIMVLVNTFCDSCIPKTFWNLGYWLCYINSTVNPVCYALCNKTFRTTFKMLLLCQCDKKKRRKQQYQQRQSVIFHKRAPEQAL

hM4 mAChR [4] = target: T4, hM4 mAChR (Homo sapiens, UniProt P08173); test: [3H]NMS inhibition radioligand binding, hM4 in CHO-K1 cell membranes; details: [3H]NMS, CHO-K1 cell membranes; mean ± S.E.M.
T4 construct: expressed in transfected cells; host or cells: CHO-K1 (membrane preparation)
T4 sequence (P08173 1-479): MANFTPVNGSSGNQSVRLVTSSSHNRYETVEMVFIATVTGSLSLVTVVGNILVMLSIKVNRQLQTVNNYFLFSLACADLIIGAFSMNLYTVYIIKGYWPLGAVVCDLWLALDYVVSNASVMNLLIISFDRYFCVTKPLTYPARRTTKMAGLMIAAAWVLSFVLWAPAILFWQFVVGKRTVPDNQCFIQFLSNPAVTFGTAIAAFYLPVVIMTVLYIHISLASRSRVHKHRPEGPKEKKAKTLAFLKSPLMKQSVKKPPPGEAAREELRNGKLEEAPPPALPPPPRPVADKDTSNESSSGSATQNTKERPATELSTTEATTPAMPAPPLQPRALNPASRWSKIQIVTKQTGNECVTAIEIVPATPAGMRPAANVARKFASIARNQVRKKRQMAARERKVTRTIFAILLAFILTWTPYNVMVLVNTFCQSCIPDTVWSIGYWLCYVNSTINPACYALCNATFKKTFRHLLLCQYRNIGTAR

hM5 mAChR [5] = target: T5, hM5 mAChR (Homo sapiens, UniProt P08912); test: [3H]NMS inhibition radioligand binding, hM5 in CHO-K1 cell membranes; details: [3H]NMS, CHO-K1 cell membranes; mean ± S.E.M.
T5 construct: expressed in transfected cells; host or cells: CHO-K1 (membrane preparation)
T5 sequence (P08912 1-532): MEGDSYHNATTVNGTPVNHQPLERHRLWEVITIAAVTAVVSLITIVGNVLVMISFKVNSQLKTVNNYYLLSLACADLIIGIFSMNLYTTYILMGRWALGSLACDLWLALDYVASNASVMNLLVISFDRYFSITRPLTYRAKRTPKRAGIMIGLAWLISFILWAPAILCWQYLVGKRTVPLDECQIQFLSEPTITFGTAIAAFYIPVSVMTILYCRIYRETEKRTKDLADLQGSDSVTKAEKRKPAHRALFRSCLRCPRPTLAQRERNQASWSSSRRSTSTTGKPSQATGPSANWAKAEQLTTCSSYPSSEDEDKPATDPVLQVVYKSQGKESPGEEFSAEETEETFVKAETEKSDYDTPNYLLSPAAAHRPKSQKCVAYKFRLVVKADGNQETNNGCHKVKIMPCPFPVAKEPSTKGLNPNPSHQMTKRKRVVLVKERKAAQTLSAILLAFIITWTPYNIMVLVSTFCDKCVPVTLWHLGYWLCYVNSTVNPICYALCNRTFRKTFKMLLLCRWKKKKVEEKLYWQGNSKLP

[6] = system: MSCs from mouse bone marrow; test: Carbachol-induced MSC viability (MTS assay); type: cell-based
Procedure: It is well established that bone marrow MSC behavior is influenced by a variety of signaling systems. In context, cholinergic intramural stimuli and, in particular, muscarinic signals orchestrate MSCs viability and commitment.[11],[12] Considering also the pluripotent MSC nature and their contribution to bone, blood, and systemic homeostasis,[53] viability studies on MSCs were performed to determine the functional profile of 3b, the most interesting compound in this series. […] Successively, the efficacy of 3b in contrasting cell viability induced by the well-known mAChR agonist carbachol was evaluated. […] Further research on the intracellular mechanistic outcomes of 3b on MSCs remains mandatory.
The in vitro studies were performed by using bone marrow MSCs as a model. Male BALB/c mice (Harlan Italy SrL, Milano, Italy) (8 weeks old; body weight ∼24.5 g; n = 4) were kept in a laminar-flow cage in a standardized environmental condition. Food (Harlan, Italy), and water was supplied ad libitum. Mice were sacrificed by CO2 narcosis and cervical dislocation in accordance with the recommendations of the Italian Ethical Committee and under the supervision of authorized investigators. Long bones (femurs and tibiae) were dissected and cleaned from skin, muscle, and connective tissues as much as possible. Bones were placed in a culture dish containing sterile PBS. Then, the bone cavity was flushed in DMEM with a syringe in order to collect the bone marrow cells into a 50 mL sterile tube. […] After 2 weeks of initiating culture, cells were washed with PBS, detached by trypsinization, counted, and plated at the density of 5,000 cells/well in 96 culture plates (Costar Corp., Milano, Italy) in DMEM containing 10% HIFCS, penicillin, and streptomycin.
MSCs were treated with compound 3b (from 10^–4 to 10^–10 M) for 24 h. […] At the end of each procedure, the MSCs viability was measured by MTS assay. […] The quantity of the formazan product was directly proportional to the number of living cells in culture. The colored formazan was measured by reading the absorbance at 490 nm using a […] plate reader.

hM1 mAChR [7] = target: T1, hM1 mAChR; details: cited from earlier work
hM2 mAChR [8] = target: T2, hM2 mAChR; details: cited from earlier work
hM3 mAChR [9] = target: T3, hM3 mAChR; details: cited from earlier work
hM4 mAChR [10] = target: T4, hM4 mAChR; details: cited from earlier work
hM5 mAChR [11] = target: T5, hM5 mAChR; details: cited from earlier work
urinary bladder = system: urinary bladder; design: method as in PMID 22243489; details: anesthetized rats; compared to oxybutynin; cited from earlier work

SMILES: C[N+](C)(C)C[C@@H]1COC[C@@](c2ccccc2)(C2CCCCC2)O1.[I-] (relative stereo) [3a, 1-((2R*,6S*)-6-Cyclohexyl-6-phenyl-1,4-dioxan-2-yl)-N,N,N-trimethylmethanaminium Iodide]
- pKi hM1 (hM1 mAChR [1]): 8.03 ± 0.09
- pKi hM2 (hM2 mAChR [2]): 7.36 ± 0.12
- pKi hM3 (hM3 mAChR [3]): 7.84 ± 0.13
- pKi hM4 (hM4 mAChR [4]): 7.51 ± 0.08
- pKi hM5 (hM5 mAChR [5]): 7.26 ± 0.05
- melting point: 270 to 271 °C

SMILES: C[N+](C)(C)CCOC(N)=O [carbachol]
- effect of agonist on MSC viability ([6]; carbachol 10^–10 M, 24 h): increase of carbachol-induced MSC viability

SMILES: O=C(O[C@H]1C[C@H]2CC[C@@H](C1)[N+]21CCCC1)C(O)(c1ccccc1)c1ccccc1 [trospium]
- pKi hM1 (hM1 mAChR [7]): 8.46
- pKi hM2 (hM2 mAChR [8]): 8.94
- pKi hM3 (hM3 mAChR [9]): 8.99
- pKi hM4 (hM4 mAChR [10]): 8.84
- pKi hM5 (hM5 mAChR [11]): 8.22

SMILES: C[N+](C)(C)C[C@H]1COCC(c2ccccc2)(c2ccccc2)O1 [(S)-(−)-2]
- reduction of volume-induced contractions of the urinary bladder (urinary bladder): more efficaciously reduced the volume-induced contractions of the urinary bladder

SMILES: CN1[C@@H]2CC[C@H]1C[C@@H](OC(=O)C(CO)c1ccccc1)C2 (some centres unmarked) [atropine]
- effect on carbachol-induced MSC viability ([6]; pre-incubation 1 h, then carbachol 10^–10 M for 24 h): able to contrast the increase of carbachol-induced MSC viability
